Results reported in patent US5650525A, “1,2-dioxetane derivatives, intermediates for syntheses thereof and methods of producing the intermediates” (priority 1994, dated 1997).
Counter-ions that a name gives are not always drawn.

Tests used:
[1] = Thermal stability: half-life by 1H NMR in methanol-d4 heated at 60° C. (Test Examples 1-2, 2-2); assay type: physicochemical; settings: for half-life at 60° C.: 1 mg in methanol-d4 (0.35 ml), 1H NMR at intervals of 2 to 3 hours; for thermal stability compared with AMPPD: methanol-d4, 60° C., versus AMPPD
Description: 1 mg of 3-isopropoxy-4,4-diisopropyl-3-(3'-phosphoryloxy)phenyl-1,2-dioxetane disodium salt (Compound [40]) synthesized in Example 26 was dissolved in methanol-d4 (0.35 ml), and the solution was heated at 60° C. in a thermostated bath, so that the solution was subjected to ^1 HNMR measurement at intervals of 2 to 3 hours.
In the above ^1 HNMR measurement, Compound [40] was replaced by the commercially available AMPPD (3-(2'-spiroadamantan)-4-methoxy-4-(3"-phosphoryloxy)phenyl-1,2-dioxetane disodium salt), whereby the half-life of AMPPD at 60° C. was also calculated in the same manner as mentioned above.
1 mg of 3-t-butyl-4-methoxy-3-neopentyloxymethyl-4-(3'-phosphoryloxy)phenyl-1,2-dioxetane disodium salt (Compound [86]) synthesized in Example 66 was dissolved in methanol-d4 (0.35 ml), and the solution was heated at 60° C. in a thermostated bath, so that the solution was subjected to ^1 HNMR measurement at intervals of 2 to 3 hours.

alkaline phosphatase [2] = test: Chemiluminescence with alkaline phosphatase, Test Example 1-1 (FIG. 1); assay type: biochemical; settings: 0.2 mg/ml, 0.1M diethanolamine/HCl buffer pH 10.0, 37° C.; versus AMPPD
Description: 3-isopropoxy-4,4-diisopropyl-3-(3'-phosphoryloxy)phenyl-1,2-dioxetane disodium salt (Compound [40]) synthesized in Example 26 was dissolved in a 0.1M diethanolamine/hydrochloric acid buffer solution (pH 10.0) containing 1 mM magnesium chloride and 0.05% sodium azide, in such an amount that the concentration of the dissolved Compound [40]) was 0.2 mg/ml, and the solution was stirred.
(§1) 300 μl of this solution was placed in a cartridge for assay and incubated for 90 minutes.
(§2) After this incubation, 20 μl of an enzyme solution was added to the above solution, which enzyme solution was prepared by diluting an alkaline phosphatase solution for enzyme immunoassay (made by Boehringer Mannheim Co., Ltd.) (3 mg/0.3 ml) 154 times and then 10^5 times with a 50 mM Tris/cl buffer solution (pH 7.2) containing 0.15M sodium chloride, 1 mM magnesium chloride, 0.1 mM zinc chloride and 0.1% sodium azide.
(§3) The luminescence of the above diluted enzyme solution was measured at 37° C. at regular time intervals.
(§4) For comparison, the luminescence of a commercially available AMPPD (3-(2'-spiroadamantan)-4-methoxy-4-(3"-phosphoryloxy)phenyl-1,2-dioxetane disodium salt was measured under the same conditions as mentioned above, by replacing the Compound [40] with AMPPD in accordance with the above-mentioned procedure.

alkaline phosphatase [3] = test: Chemiluminescence with alkaline phosphatase in presence of quaternary ammonium salt (BDMG), Test Example 2-1 (FIG. 2); assay type: biochemical; settings: 0.2 mg/ml, 0.1M diethanolamine/HCl buffer pH 10.0 with 0.4 mg/ml BDMG, 37° C.; versus AMPPD
Description: 3-t-butyl-4-methoxy-3-neopentyloxymethyl-4-(3'-phosphoryloxy)phenyl-1,2-dioxetane disodium salt (Compound [86]) synthesized in Example 66 was dissolved in a 0.1M diethanolamine/hydrochloric acid buffer solution (pH 10.0 ) containing 0.4 mg/ml of quaternary ammonium salt (BDMG), 1 mM magnesium chloride and 0.05% sodium azide, in such an amount that the concentration of the dissolved Compound [86] was 0.2 mg/ml, and the solution was stirred.
as §1
as §2, with “times” for “times and then 10^5 times”
as §3
as §4, with “salt)” for “salt”, “[86]” for “[40]”

COC1(c2cccc(OP(=O)(O)O)c2)OOC12C1CC3CC(C1)CC2C3 (stereo not shown) [AMPPD, 3-(2'-spiroadamantan)-4-methoxy-4-(3"-phosphoryloxy)phenyl-1,2-dioxetane disodium salt, reference compound]
half-life at 60° C. [1]: 5.5 h

CC(C)OC1(c2cccc(OP(=O)(O)O)c2)OOC1(C(C)C)C(C)C (stereo not shown) [Compound [40], 3-isopropoxy-4,4-diisopropyl-3-(3'-phosphoryloxy)phenyl-1,2-dioxetane disodium salt]
chemiluminescence intensity compared with AMPPD (alkaline phosphatase [2]): higher intensity
half-life at 60° C. [1]: 14.3 h
thermal stability compared with AMPPD [1]: thermally more stable

COC1(c2cccc(OP(=O)(O)O)c2)OOC1(COCC(C)(C)C)C(C)(C)C (stereo not shown) [Compound [86], 3-t-butyl-4-methoxy-3-neopentyloxymethyl-4-(3'-phosphoryloxy)phenyl-1,2-dioxetane disodium salt]
chemiluminescence intensity compared with AMPPD (alkaline phosphatase [3]): higher intensity
half-life at 60° C. [1]: 18.6 h
thermal stability compared with AMPPD [1]: thermally more stable
